Assay results from patent publication US5795899A, “Soluble salts of 4-amino-2-(4,4-dimethylimidazolidin-2-on-1-yl) pyrimidine-5-carboxylic acid N-methyl-N-(3-trifluoromethylphenyl)-amide, a process for the preparation thereof, the use thereof as pharmaceuticals and starting materials” (Hoechst Aktiengesellschaft, priority 1992, dated 1998).

What was measured:
[1] = tested on: carbohydrate-induced hypertriglyceridemia; test: Inhibition of carbohydrate-induced hypertriglyceridemia; format: in vivo, male Sprague-Dawley rats; conditions: oral, 4 days; for Triglycerides in serum (x): mean x
Experimental: Groups of in each case 10 male Sprague-Dawley rats (supplied by the breeder Mollegard with a weight of 250-280 g) received on each of 4 consecutive days one administration of the compound dissolved in PEG 400 by gavage. In addition, after the 3rd administration and 8 and 24 hours later they received 2.5 g of fructose/kg, likewise by gavage. Moreover, after the 3rd administration of product, 50% strength fructose solution was offered to them as drinking water ad libitum, and the food was withdrawn. Retroorbital removal of blood, from which the serum was obtained for the triglyceride determination and VLDL preparation in the ultracentrifuge (flotation at d=1.006), took place 3 hours after the last product/fructose administration. The food received by the animals from 1 week before the 1st administration and up to the 3rd administration was a diet with 40% casein in the feed meal.
The animals develop, as a result of this treatment, a hypertriglyceridemia which approximately corresponds to Fredrickson phenotype IV in humans. The serum triglycerides of the normal animals increased from 0.54 to 1.1 mmol/l, and the VLDL triglycerides from 0.67 to 1.81.

[2] = Side effects like those observed with the statins; conditions: general statement
[3] = tested on: serum lipoproteins; test: Effect on serum lipoproteins of normolipemic male rats in a subchronic test; format: in vivo, male Wistar rats, HOE: WISKf (SPF 71) strain; conditions: for % change compared with control, protein LDL / % change compared with control, total cholesterol LDL / % change compared with control, total cholesterol VLDL / % change compared with control, triglycerides VLDL: oral, 7 days
Experimental: 4.1 Effect on serum lipoproteins of normolipemic male rats in a subchronic test
Groups of in each case 10 male rats of the HOE: WISKf (SPF 71) strain with an initial weight above 180 g received once a day (in the morning) the test product or the comparison product in 1% aqueous ®Tylose MH 300 solution by stomach tube (0.5 ml/100 g of body weight); the control group in each case received only the vehicle. The last (7th) administration took place 24 hours before removal of blood and sacrifice. There was free access to food and water during the test. The food was withdrawn 24 hours before the removal of blood.
The serum from all 10 rats in a group was pooled for the analysis of the serum lipoproteins. The serum lipoproteins were separated with a preparative ultracentrifuge (KONTRON TGA 65, Rotor BECKMAN 50.4 Ti).
The following conditions specified by Koga, S., Horwitz, D. L., and Scanu, A. M., Journal of Lipid Research 10, 577 (1969) and Havel, R. J., Eder, H. A., and Bragdon, H. H., J. Clin. Invest. 34, 1345 (1955) were used to separate VLDL, LDL and HDL:
Test kits from BOEHRINGER/Mannheim were used for the enzymatic determination of cholesterol and triglycerides in the separated lipoprotein fractions (compare Siedel, J., Schlumberger, H., Klose, S., Ziegenhorn, J. and Wahlefeld, A. W., J. Clin. Chem. Clin. Biochem. 19, 838 (1981) and Wahlefeld, A. W., in: H. O. Bergmeier: Methoden der enzymatischen Analyse (Methods of Enzymatic Analysis), 2nd edition, Volume II, Verlag Chemie 1974, page 1878). The proteins were determined by the method of Lowry (Lowry, O. H., Roseborough, N. J., Farr, A. L. and R. J. Randell, J. Biol. Chem. 193, 265 (1951)).
Clofibrate was used as comparison product.

[4] = tested on: tumor cells (L 1210, A 549, HT 29); test: Cell proliferation inhibition (MTT assay), overall statement; format: cell-based, mouse and human
Experimental: The reduced inhibitory effect on cell proliferation was tested on exponentially growing animal (mouse leukemia cells, L 1210) and human (bronchial carcinoma cells, A 549; colon carcinoma cells, HT 29) tumor cells. This entailed the tumor cells being incubated in RPMI standard medium with various concentrations of the test substances for 72 hours. Cell incubations only in fresh medium served as control. Incubations were set up in quadruplet. […] After incubation for a further 7 to 24 hours, the cell supernatant was carefully removed and the formazan dye in the cells was solubilized by adding DMSO and measured quantitatively by photometry at 492 nm. The ratio of the extinction of the substance incubations to the control incubation was quantified. The coefficient of variation in each incubation series was less than 15%. The following Table 6 indicates the IC50 values (IC50 [μg/ml] is the concentration of the test substance per ml which is necessary for 50% inhibition) from these investigations.

[5] = physchem; conditions: water
[6] = tested on: hypercholesterolemia; test: Effect on experimental hypercholesterolemia in male rats; format: in vivo, male Wistar rats, HOE: WISKf (SPF 71) strain; conditions: oral, 7 days; for Total cholesterol (x): mean x
Experimental: Groups of in each case 10 male rats of the HOE: WISKf (SPF 71) strain with a weight of about 200 g received each day in the morning a cocktail which contained the substances required to generate a combined dietetic/hormonal hypercholesterolemia, and in each case the product to be tested for the inhibition of hypercholesterolemia, in appropriate dosage. The cocktail was composed of a mixture of 100 g of cholesterol, 30 g of propylthiouracil and 100 g of cholic acid in 1 l of peanut oil. 1 ml of this/100 g of body weight was administered by gavage. The products to be tested were suspended in this cocktail in a concentration such that it contained the daily dose indicated in Table 4 on administration of the amount mentioned above. The other procedure for the treatment and the analysis of the individual parameters were carried out as indicated under 4.1.
Clofibrate was used as comparison product. The results are compiled in Table 4, wherein a) indicates the absolute values and b) indicates the percentage changes.

Compound: CN(C(=O)c1cnc(N2CC(C)(C)NC2=O)nc1N)c1cccc(C(F)(F)F)c1 [Compound I, 4-amino-2-(4,4-dimethylimidazolidin-2-on-1-yl)pyrimidine-5-carboxylic acid N-methyl-N-(3-trifluoromethylphenyl)amide]
- Triglycerides in serum, % change from fructose control ([1]; 1 mg/kg/day): -36%
- Triglycerides in the VDVL fraction, % change from fructose control ([1]; 1 mg/kg/day): -45%
- Triglycerides in the VDVL fraction, pool n = 10 ([1]; 1 mg/kg/day): 1.00 mmol/L
- Triglycerides in serum (x) ([1]; 1 mg/kg/day): 0.71 mmol/L
- Triglycerides in serum, % change from fructose control ([1]; 3 mg/kg/day): -51%
- Triglycerides in the VDVL fraction, % change from fructose control ([1]; 3 mg/kg/day): -62%
- Triglycerides in the VDVL fraction, pool n = 10 ([1]; 3 mg/kg/day): 0.69 mmol/L
- Triglycerides in serum (x) ([1]; 3 mg/kg/day): 0.54 mmol/L
- Triglycerides in serum, % change from fructose control ([1]; 10 mg/kg/day): -68%
- Triglycerides in the VDVL fraction, % change from fructose control ([1]; 10 mg/kg/day): -80%
- Triglycerides in the VDVL fraction, pool n = 10 ([1]; 10 mg/kg/day): 0.37 mmol/L
- Triglycerides in serum (x) ([1]; 10 mg/kg/day): 0.35 mmol/L
- Triglycerides in serum, % change from fructose control ([1]; 30 mg/kg/day): -74%
- Triglycerides in the VDVL fraction, % change from fructose control ([1]; 30 mg/kg/day): -90%
- Triglycerides in the VDVL fraction, pool n = 10 ([1]; 30 mg/kg/day): 0.19 mmol/L
- Triglycerides in serum (x) ([1]; 30 mg/kg/day): 0.29 mmol/L
- Side effects of the statin type observed to date [2]: Nor have side effects of this type been observed to date
- % change compared with control, protein LDL ([3]; 1 mg/kg/day): -15%
- % change compared with control, total cholesterol LDL ([3]; 1 mg/kg/day): -17%
- % change compared with control, total cholesterol VLDL ([3]; 1 mg/kg/day): +4%
- % change compared with control, triglycerides VLDL ([3]; 1 mg/kg/day): +8%
- % change compared with control, protein LDL ([3]; 3 mg/kg/day): -25%
- % change compared with control, total cholesterol LDL ([3]; 3 mg/kg/day): -32%
- % change compared with control, total cholesterol VLDL ([3]; 3 mg/kg/day): -24%
- % change compared with control, triglycerides VLDL ([3]; 3 mg/kg/day): -25%
- % change compared with control, protein LDL ([3]; 10 mg/kg/day): -41%
- % change compared with control, total cholesterol LDL ([3]; 10 mg/kg/day): -49%
- % change compared with control, total cholesterol VLDL ([3]; 10 mg/kg/day): -52%
- % change compared with control, triglycerides VLDL ([3]; 10 mg/kg/day): -62%
- % change compared with control, protein LDL ([3]; 30 mg/kg/day): -52%
- % change compared with control, total cholesterol LDL ([3]; 30 mg/kg/day): -64%
- % change compared with control, total cholesterol VLDL ([3]; 30 mg/kg/day): -59%
- % change compared with control, triglycerides VLDL ([3]; 30 mg/kg/day): -79%
- HDL levels (in words) ([3]; general statement): unaffected
- Proliferation inhibition compared with imanixil (HOE 402) / its hydrochloride (in words) [4]: distinctly reduced proliferation inhibition
- solubility [5]: 800 µg/mL
- solubility ([5]; Solubility in water: molarity, Table 2, free base, 24.8 °C): 2000 µM
- Solubility in water (in words): exceptionally slightly soluble in water
- 1 part by mass dissolves in . . . parts of H2 O (Table 2, Temp. [°C]: hydrochloride 25.0, nitrate 23.5, p-toluenesulfonate 23.2, hydrogen (R,R)-tartrate 24.6, free base 24.8): 1220 parts of H2 O
- % change compared with control, protein "HDL" d > 1.04 ([6]; 10 mg/kg/day): -7%
- % change compared with control, protein LDL ([6]; 10 mg/kg/day): -16%
- % change compared with control, protein VLDL ([6]; 10 mg/kg/day): -8%
- % change compared with control, total cholesterol "HDL" d > 1.04 ([6]; 10 mg/kg/day): -14%
- % change compared with control, total cholesterol LDL ([6]; 10 mg/kg/day): -13%
- % change compared with control, total cholesterol VLDL ([6]; 10 mg/kg/day): -34%
- % change compared with control, triglycerides VLDL ([6]; 10 mg/kg/day): -54%
- Lipoprotein fraction protein "HDL" ([6]; 10 mg/kg/day): 5004
- Lipoprotein fraction protein LDL ([6]; 10 mg/kg/day): 1040
- Lipoprotein fraction protein VLDL ([6]; 10 mg/kg/day): 1981
- Lipoprotein fraction total cholesterol "HDL" ([6]; 10 mg/kg/day): 508
- Lipoprotein fraction total cholesterol LDL ([6]; 10 mg/kg/day): 4099
- Lipoprotein fraction total cholesterol VLDL ([6]; 10 mg/kg/day): 3088
- Lipoprotein fraction triglycerides VLDL ([6]; 10 mg/kg/day): 677
- Serum % change compared with control at the end of treatment, total cholesterol ([6]; 10 mg/kg/day): -24%
- Serum % change compared with control at the end of treatment, triglycerides ([6]; 10 mg/kg/day): -16%
- Triglycerides, pool ([6]; 10 mg/kg/day): 2.45 mmol/L
- Total cholesterol (x) ([6]; 10 mg/kg/day): 556 mg/dL
- % change compared with control, protein "HDL" d > 1.04 ([6]; 30 mg/kg/day): -24%
- % change compared with control, protein LDL ([6]; 30 mg/kg/day): -68%
- % change compared with control, protein VLDL ([6]; 30 mg/kg/day): -49%
- % change compared with control, total cholesterol "HDL" d > 1.04 ([6]; 30 mg/kg/day): +79%
- % change compared with control, total cholesterol LDL ([6]; 30 mg/kg/day): -92%
- % change compared with control, total cholesterol VLDL ([6]; 30 mg/kg/day): -97%
- % change compared with control, triglycerides VLDL ([6]; 30 mg/kg/day): -71%
- Lipoprotein fraction protein "HDL" ([6]; 30 mg/kg/day): 4090
- Lipoprotein fraction protein LDL ([6]; 30 mg/kg/day): 391
- Lipoprotein fraction protein VLDL ([6]; 30 mg/kg/day): 1105
- Lipoprotein fraction total cholesterol "HDL" ([6]; 30 mg/kg/day): 1056
- Lipoprotein fraction total cholesterol LDL ([6]; 30 mg/kg/day): 369
- Lipoprotein fraction total cholesterol VLDL ([6]; 30 mg/kg/day): 126
- Lipoprotein fraction triglycerides VLDL ([6]; 30 mg/kg/day): 425
- Serum % change compared with control at the end of treatment, total cholesterol ([6]; 30 mg/kg/day): -81%
- Serum % change compared with control at the end of treatment, triglycerides ([6]; 30 mg/kg/day): -62%
- Triglycerides, pool ([6]; 30 mg/kg/day): 1.10 mmol/L
- Total cholesterol (x) ([6]; 30 mg/kg/day): 137 mg/dL
